Drawing on article PMC7174603, “Functional Analysis of Two Odorant-Binding Proteins, MaltOBP9 and MaltOBP10, in Monochamus alternatus Hope” (Frontiers in Physiology, 2020), this text covers Ki for nine compounds.

A value given as a limit tells only on which side of the number the result lay.

One experiment deals with T1, MaltOBP10 (Monochamus alternatus, UniProt A0A1I9HZL5).
T1 construct: gene obp10; said to encode mature protein (clone primer starts at ATG)
T1 sequence (A0A1I9HZL5 1-144 limits assumed): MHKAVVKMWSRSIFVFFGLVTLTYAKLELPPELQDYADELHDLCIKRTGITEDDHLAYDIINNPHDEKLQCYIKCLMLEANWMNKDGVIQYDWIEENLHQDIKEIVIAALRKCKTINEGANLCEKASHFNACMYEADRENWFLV
Nature of the experiment: biochemical. Details: 1-NPN fluorescence displacement competitive binding to 2 uM recombinant OBP; Ki from IC50. The settings on record: pH 5.0; read-out: MaltOBP10 / pH5.0. As for the experimental part: (§1) Fluorescence-binding assays were performed to determine the binding affinities of MaltOBP9 and MaltOBP10 with 17 volatiles in neutral and acidic pH conditions separately using N-phenyl-1-naphthylamine (1-NPN) as the fluorescent probe. 1-NPN and all of the other chemicals used in the binding assays were purchased from Sigma-Aldrich (St. Louis, MO, United States). All of the ligand stock solutions were prepared in spectrophotometric grade methanol. The binding constants for 1-NPN were determined by adding aliquots of 1 mM 1-NPN to separate samples containing 2 μM of each OBP in 50 mM Tris–HCl at pH 7.4 and room temperature. The binding of 1-NPN was measured at an excitation wavelength of 337 nm and the fluorescence intensity was recorded between 300 and 600 nm during a high-speed scan using an RF-5301PC fluorescence spectrophotometer with a 1-cm light path and a quartz cuvette. Saturation curves were constructed for the binding of 1-NPN with the OBPs and the dissociation constant (Kd) of the binding reaction was calculated by performing Scatchard analysis of the data using the Prism 5 program (GraphPad, La Jolla, CA, United States). The binding analyses were performed based on the assumption that the protein was completely active and that the stoichiometry of binding was 1:1 at saturation. Aliquots of the competitor ligand were added to a sample containing 2 μM of each separate OBP and a standard concentration of 1-NPN. […] The binding data were collected during three independent high-speed scans. Ki representing the Kd of the competitor was determined based on the IC50 value (half maximal inhibitory concentration) for the competitor as the concentration of the competitor that displaced 50% of the bound 1-NPN at a standard total 1-NPN concentration (bound plus free) at equilibrium. Ki was calculated according to the following equation: Ki = [IC50]/(1+[1-NPN]/K), where 1-NPN is the free concentration of 1-NPN and K1–NPN is Kd for the 1-NPN-OBP binding reaction determined by Scatchard analysis ([Campanacci et al., 2001]). After confirmation by SDS-PAGE, the purified MaltOBP9 and MaltOBP10 proteins were used in fluorescence-binding assays to determine their binding affinities with different volatiles that come from forest. First, we analyzed the binding of the fluorescent probe 1-NPN with MaltOBP9 and MaltOBP10 (Figure 6). […] The binding affinities (Ki < 50) ([Zheng et al., 2016]) with all of the ligands indicted the broad binding ranges of MaltOBP9 and MaltOBP10 at pH 7.4. […] The change in the pH appeared to have less impact on the binding with MaltOBP10.
Regarding `C=C1[C@@H]2CC[C@@H](C2)C1(C)C` [Camphene], the Ki came out at 14.8 ± 0.57 µM.
The same measure, in the same setting: the result for `CC1(C)[C@H]2CC[C@]1(C)C(=O)C2` (racemic) [Camphor] reads 21.2 ± 3.49 µM.
On the same count and under the same terms, the result for `Cc1ccc(C(C)C)cc1` [p-cymene] reads 35.4 ± 0.63 µM.
Still for that read-out and setting: the result for `C=C1CC[C@@H]2C[C@H]1C2(C)C` [(+)-β-pinene] reads 62.8 ± 1.08 µM; that for `CC1=CC[C@@H]2[C@@H]3[C@H]1[C@@]2(C)CCCC3(C)C` [(+)-α-longipinene], 21.2 ± 1.75 µM.
For the compound `CC1=CCC2C(C1)C2(C)C` (stereo not drawn) [3-carene], the Ki was 32.5 ± 4.28 µM.

The experiment is the same for the next values; noted with them: pH 7.4; read-out: MaltOBP10 / pH7.4.
On to `C=C1[C@@H]2CC[C@@H](C2)C1(C)C` [Camphene], for which the Ki is 20.6 ± 1.22 µM.
Same read-out and setting: the result for `CC1(C)[C@H]2CC[C@]1(C)C(=O)C2` (racemic) [Camphor] reads 26.2 ± 1.76 µM; that for `Cc1ccc(C(C)C)cc1` [p-cymene], 23.8 ± 2.33 µM.
Still for that read-out and setting: the result for `C=C1CC[C@@H]2C[C@H]1C2(C)C` [(+)-β-pinene] reads 25.8 ± 3.78 µM; that for `CC1=CCC2C(C1)C2(C)C` (stereo not drawn) [3-carene], 42.5 ± 0.82 µM.

Another experiment deals with T2, MaltOBP9 (Monochamus alternatus, UniProt A0A1I9HZK8).
T2 construct: gene obp9; said to encode mature protein (clone primer starts at ATG)
T2 sequence (A0A1I9HZK8 1-140 limits assumed): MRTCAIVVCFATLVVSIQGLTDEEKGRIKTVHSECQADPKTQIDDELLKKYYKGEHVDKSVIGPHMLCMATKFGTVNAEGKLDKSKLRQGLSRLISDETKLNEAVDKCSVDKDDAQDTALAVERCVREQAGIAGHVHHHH
Put plainly: biochemical. Details: 1-NPN fluorescence displacement competitive binding to 2 uM recombinant OBP; Ki from IC50. The settings on record: pH 5.0; read-out: MaltOBP9 / pH5.0. On the procedure:
as §1
For the compound `C=C1CC[C@H]2O[C@]2(C)CC[C@@H]2[C@@H]1CC2(C)C` [(−)-caryophyllene oxide], the Ki is 39.3 ± 0.73 µM.
Same read-out and setting: for `Cc1cc(C(C)(C)C)c(O)c(C(C)(C)C)c1` [Butylated hydroxytoluene] the value was 3.57 ± 0.58 µM; for `C=C1[C@@H]2CC[C@@H](C2)C1(C)C` [Camphene], > 50 µM; for `CC1(C)[C@H]2CC[C@]1(C)C(=O)C2` (racemic) [Camphor], 50.5 ± 3.68 µM.
Regarding `Cc1ccc(C(C)C)cc1` [p-cymene], the Ki was > 50 µM.
On to `C=C1CC[C@@H]2C[C@H]1C2(C)C` [(+)-β-pinene], for which the Ki came to 21.7 ± 0.65 µM.
With `CC1=CC[C@@H]2[C@@H]3[C@H]1[C@@]2(C)CCCC3(C)C` [(+)-α-longipinene], the Ki worked out at 34.7 ± 0.94 µM.
Still for that read-out and setting: the result for `CC1=CCC2C(C1)C2(C)C` (stereo not drawn) [3-carene] reads 38.12 ± 0.23 µM.

The experiment is the same for the next values; noted with them: pH 7.4; read-out: MaltOBP9 / pH7.4.
In the case of `C=C1[C@@H]2CC[C@@H](C2)C1(C)C` [Camphene], the Ki was 22.6 ± 1.08 µM.
With `CC1(C)[C@H]2CC[C@]1(C)C(=O)C2` (racemic) [Camphor], the Ki is 25.9 ± 0.76 µM.
Same read-out and setting: the result for `CC1=CCC2C(C1)C2(C)C` (stereo not drawn) [3-carene] reads 25.1 ± 0.76 µM.

The next experiment addresses T2, MaltOBP9. Nature of the experiment: fluorescence competitive binding, 1-NPN displacement. The settings on record: pH 7.4, 50 mM Tris-HCl, room temperature; competitive with 1-NPN, 2 μM protein; read-out: MaltOBP9 / pH7.4. The text has this:
fluorescence competitive binding, 1-NPN displacement on MaltOBP9
In the case of `C=C1[C@H]2CC[C@@H]3[C@H]2[C@H](C(C)C)CC[C@]13C` [(+)-Sativene], the Ki was found to be 19.5 ± 0.36 µM.

Still in this experiment, the particulars now being: read-out: MaltOBP9 / pH7.4.
In the case of `C=C1CC[C@H]2O[C@]2(C)CC[C@@H]2[C@@H]1CC2(C)C` [(−)-caryophyllene oxide], the Ki was determined as 15.3 ± 0.94 µM.
Still for that read-out and setting: the result for `Cc1cc(C(C)(C)C)c(O)c(C(C)(C)C)c1` [Butylated hydroxytoluene] reads 9.58 ± 0.28 µM; that for `Cc1ccc(C(C)C)cc1` [p-cymene], 11.7 ± 0.23 µM; that for `CC1=CC[C@@H]2[C@@H]3[C@H]1[C@@]2(C)CCCC3(C)C` [(+)-α-longipinene], 12.5 ± 0.67 µM.

Another experiment deals with T1, MaltOBP10. The description is as above. The settings on record: read-out: MaltOBP10 / pH7.4. From the text:
fluorescence competitive binding, 1-NPN displacement on MaltOBP10
As to `C=C1CC[C@H]2O[C@]2(C)CC[C@@H]2[C@@H]1CC2(C)C` [(−)-caryophyllene oxide], the Ki came out at 16.4 ± 0.4 µM.
Same read-out and setting: the result for `Cc1cc(C(C)(C)C)c(O)c(C(C)(C)C)c1` [Butylated hydroxytoluene] reads 20.1 ± 2.75 µM.
Same read-out and setting: for `CC1=CC[C@@H]2[C@@H]3[C@H]1[C@@]2(C)CCCC3(C)C` [(+)-α-longipinene] the value was 11.6 ± 0.74 µM.
